One may read the IC50 as the concentration that inhibits the measured activity by half.

For assay [1], the system named is Human Jurkat-E6-1 cells. Description: Detection of IL-2 production by Jurkat cells using ELISA. The assay is classed as cell-based. The note with it: anti-CD3/anti-CD28 stimulation 24 hours, read-out: Percentage of the amount of IL-2 secreted by compound treated vs DMSO-treated cells; for activity at 0.33 µM: tested compound 0.33 μM; for activity at 1 µM: tested compound 1.0 μM. Here is the method: (§1) Tested compounds: compounds prepared in the Examples of this invention.
Human Jurkat-E6-1 cells were incubated with various concentrations of tested compounds for 30 minutes in a humidified incubator at 37° C. and 5% CO2. Cells were transferred to cell culture plates pre-coated with anti-human CD3 antibody, then soluble anti-human CD28 antibody was added, and cells were stimulated for 24 hours at 37° C. and 5% CO2 in a humidified incubator. The cell culture medium was collected after centrifugation, and was then transferred to a 96-well transparent microtiter plate (Thermo) pre-coated with anti-human IL-2 antibody, incubated at room temperature for 2 hours with gently shaking, washed with washing buffer for 4 times, and then followed the ELISA MAX Deluxe Set Human IL-2 (BioLegend) kit procedures, used a microplate reader (Molecular Device, i3X) to read the GD value at 450 nm. The best standard curve was selected by the microplate reader application software, and the corresponding concentration was calculated according to the GD value of the standard. Results are expressed as a percentage (%) of the amount of IL-2 secreted by compound-treated vs DMSO-treated cells.
On the technique in general: ELISA stands for enzyme-linked immunosorbent assay.

Assay [2] has as its target HPK1 (Homo sapiens, UniProt Q92918). The assay is described as follows: HPK1 kinase activity inhibition test (ADP-Glo, luminescence). The assay is classed as biochemical. The note with it: 2 μM ATP, 5 nM HPK1, read-out: IC50, inhibitory effects on HPK1 kinase activity. How it is done:
The kinase activity of HPK1 is manifested as activity of autophosphorylation and phosphorylation of downstream substrates. In the process of autophosphorylation, additional substrates are not required, and ATP is consumed to generate ADP. The amount of the product is measured by ADP-Glo reagent and luminescence method to reflect kinase activity.
as §1
Preparation of compound stock solution: dissolve the test compound in 100% DMSO to make a 10 mM stock solution;
Preparation of 4×Kinase Reaction Buffer:
Preparation of 2×HPK1 Kinase Solution:
Preparation of 4×ATP Mixture:
Dilute the stock solution of the test compound by 5 times with 100% DMSO, make a 4-fold equal dilution in a 96-well dilution plate, add 1 μL of the compound to 49 μL of kinase reaction buffer, and shake on a microplate shaker for 20 minutes. Transfer 2 μL of 2×HPK1 kinase solution to 384 reaction plate, add 1 μL of the test compound to the 384 reaction plate (Greiner, Cat #784075), centrifuge for 1 minute (1000 rpm/min), incubate at 25° C. for 10 minutes. Transfer 1 μL of the 4×ATP mixture to a 384 reaction plate, centrifuge for 1 minute (1000 rpm/min), and incubate at 25° C. for 60 minutes. In the reaction system, the final concentration of DMSO is 0.5%. Transfer 4 μL of ADP-Glo to a 384 reaction plate, centrifuge for 1 minute (1000 rpm/min), and incubate at 25° C. for 40 minutes. Transfer 8 μL detection solution to a 384 reaction plate, centrifuge for 1 minute (1000 rpm/min), and incubate at 25° C. for 40 minutes. The […] is read using a Biotek multi-function plate reader, and the IC50 (half inhibitory concentration) of the compound is obtained using a four-coefficient nonlinear fitting formula.
For orientation: In ADP-Glo the light output rises with the ADP produced.

SMILES strings stand for the structures. Some results are limits rather than exact numbers.

Sequence of HPK1 (Q92918 whole entry): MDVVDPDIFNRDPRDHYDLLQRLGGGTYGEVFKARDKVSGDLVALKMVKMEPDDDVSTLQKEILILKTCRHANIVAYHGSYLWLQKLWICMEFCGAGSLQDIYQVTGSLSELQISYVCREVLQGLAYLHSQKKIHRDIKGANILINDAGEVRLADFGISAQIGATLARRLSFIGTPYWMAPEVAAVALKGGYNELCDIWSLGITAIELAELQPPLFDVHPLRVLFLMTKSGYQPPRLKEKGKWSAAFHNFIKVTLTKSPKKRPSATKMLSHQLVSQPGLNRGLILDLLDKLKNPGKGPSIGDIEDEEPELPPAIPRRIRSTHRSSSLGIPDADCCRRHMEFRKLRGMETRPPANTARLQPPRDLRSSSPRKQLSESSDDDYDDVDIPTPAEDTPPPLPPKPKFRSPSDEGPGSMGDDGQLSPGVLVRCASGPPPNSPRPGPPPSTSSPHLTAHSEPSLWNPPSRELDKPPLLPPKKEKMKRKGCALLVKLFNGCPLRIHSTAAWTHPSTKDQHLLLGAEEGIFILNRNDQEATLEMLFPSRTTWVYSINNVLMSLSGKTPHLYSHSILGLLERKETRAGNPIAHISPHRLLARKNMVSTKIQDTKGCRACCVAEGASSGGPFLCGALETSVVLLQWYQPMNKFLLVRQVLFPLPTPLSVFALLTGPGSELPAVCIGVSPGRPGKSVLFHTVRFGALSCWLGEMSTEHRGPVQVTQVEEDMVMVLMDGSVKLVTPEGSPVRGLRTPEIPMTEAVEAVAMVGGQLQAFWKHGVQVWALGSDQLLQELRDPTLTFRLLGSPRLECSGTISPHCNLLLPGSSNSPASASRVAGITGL

With `Fc1cccc2c1-c1cc3c(n[nH]c3cn1)-c1ccc(N3CCC(N4CCOCC4)CC3)c(c1)OCCCO2` [Compound 104, 16-fluoro-5-[4-(morpholin-4-yl)piperidin-1-yl]-7,11-dioxa-19,22,23-triazapentacyclo[16.5.2.1^2,6.0^12,17.0^21,24]hexacosa-1(23),2,4,6(26),12(17),13,15,18,20,24-decaene], the activity at 0.33 µM in assay [1] turned out to be 273%. Besides, the IC50 in assay [2] is no more than 5 nM.

On to `Fc1cccc2c1-c1cc3c(n[nH]c3cn1)-c1ccc(N3CCC(N4CCOCC4)CC3)c(c1)OCCCOC2` [Compound 105, 17-fluoro-5-[4-(morpholin-4-yl)piperidin-1-yl]-7,11-dioxa-20,23,24-triazapentacyclo[17.5.2.1^2,6.0^13,18.0^22,25]heptacosa-1(24),2,4,6(27),13(18),14,16,19,21,25-decaene], for which, in assay [1], the activity at 0.33 µM came to 313%. Also, the IC50 in assay [2] was no more than 5 nM.

On to `OC1CCN(c2ccc3cc2OCCCOc2cccc(F)c2-c2cc4c-3n[nH]c4cn2)CC1` [Compound 106, 16-fluoro-5-(4-hydroxypiperidin-1-yl)-7,11-dioxa-19,22,23-triazapentacyclo[16.5.2.1^2,6.0^12,17.0^21,24]hexacosa-1(23),2,4,6(26),12(17),13,15,18,20,24-decaene], for which the activity at 1 µM in assay [1] came out at 504%. Further, the IC50 in assay [2] fell in the range of 5 to 50 nM.

As for `OC1CCN(c2ccc3cc2OCCCOCc2cccc(F)c2-c2cc4c-3n[nH]c4cn2)CC1` [Compound 107, 17-fluoro-5-(4-hydroxypiperidin-1-yl)-7,11-dioxa-20,23,24-triazapentacyclo[17.5.2.1^2,6.0^13,18.0^22,25]heptacosa-1(24),2,4,6(27),13(18),14,16,19,21,25-decaene], the activity at 1 µM in assay [1] came out at 345%. The IC50 in assay [2] was no more than 5 nM.

Consider `CN1CCN(C2CCN(c3ccc4cc3OCCCOc3cccc(F)c3-c3cc5c-4n[nH]c5cn3)CC2)CC1` [Compound 108, 16-fluoro-5-[4-(4-methylpiperazin-1-yl)piperidin-1-yl]-7,11-dioxa-19,22,23-triazapentacyclo[16.5.2.1^2,6.0^12,17.0^21,24]hexacosa-1(23),2,4,6(26),12(17),13,15,18,20,24-decaene], for which, in assay [1], the activity at 0.33 µM amounted to 213%. The IC50 in assay [2] is no more than 5 nM.

On to `CN1CCN(C2CCN(c3ccc4cc3OCCCOCc3cccc(F)c3-c3cc5c-4n[nH]c5cn3)CC2)CC1` [Compound 109, 17-fluoro-5-[4-(4-methylpiperazin-1-yl)piperidin-1-yl]-7,11-dioxa-20,23,24-triazapentacyclo[17.5.2.1^2,6.0^13,18.0^22,25]heptacosa-1(24),2,4,6(27),13(18),14,16,19,21,25-decaene], for which, in assay [1], the activity at 1 µM was 264%. Moreover, in assay [2], the IC50 was no more than 5 nM.

`CN(C)C1(C)CCN(c2ccc3cc2OCCCOc2cccc(F)c2-c2cc4c-3n[nH]c4cn2)CC1` [Compound 110, 1-{16-fluoro-7,11-dioxa-19,22,23-triazapentacyclo[16.5.2.1^2,6.0^12,17.0^21,24]hexacosa-1(23),2,4,6(26),12(17),13,15,18,20,24-decaen-5-yl}-N,N,4-trimethylpiperidin-4-amine]: the activity at 0.33 µM in assay [1] amounted to 222%. Besides, in assay [2], the IC50 was no more than 5 nM.

Regarding `CN(C)C1(C)CCN(c2ccc3cc2OCCCOCc2cccc(F)c2-c2cc4c-3n[nH]c4cn2)CC1` [Compound 111, 1-{17-fluoro-7,11-dioxa-20,23,24-triazapentacyclo[17.5.2.1^2,6.0^13,18.0^22,25]heptacosa-1(24),2,4,6(27),13(18),14,16,19,21,25-decaen-5-yl}-N,N,4-trimethylpiperidin-4-amine], the activity at 0.33 µM in assay [1] was found to be 388%. Further, the IC50 in assay [2] is no more than 5 nM.

For `OC1CCN(C2CCN(c3ccc4cc3OCCCOCc3cccc(F)c3-c3cc5c-4n[nH]c5cn3)CC2)CC1` [Compound 112, 1′-{17-fluoro-7,11-dioxa-20,23,24-triazapentacyclo[17.5.2.1^2,6.0^13,18.0^22,25]heptacosa-1(24),2,4,6(27),13(18),14,16,19,21,25-decaen-5-yl}-[1,4'-bipiperidin]-4-ol], the activity at 1 µM in assay [1] turned out to be 245%. In addition, the IC50 in assay [2] was no more than 5 nM.

The values are drawn from patent US20240383911A1, “AZAINDAZOLE MACROCYCLE COMPOUNDS AND USES THEREOF” (BROADENBIO CO., LTD, priority 2021, published 2024).
